Results on 24 compounds are retold here after patent publication US20250145594A1, “MODULATORS OF THE INTEGRATED STRESS PATHWAY” (Calico Life Sciences LLC, priority 2020, published 2025).

As usually defined, the EC50 is the concentration that produces a half-maximal response.

Where only a bound is given, the exact number is not on record here.

The first assay has as its system ATF4 luciferase reporter in HEK293T cells. The assay can be described thus: ATF4-Luc assay (in vitro model of VWMD). Type of assay: cell-based, human. The settings on record: HEK293T cells carrying the ATF4 luciferase reporter, 1 μg/mL tunicamycin, 7 hours, One Glo luminescence. In outline:
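Stable HEK293T line expressing firefly luciferase behind the human ATF4 5′-UTR, treated with 1 μg/mL tunicamycin plus compound for 7 hours. Luminescence read with One Glo; EC50 determined.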
For orientation: Reporter assays use an easily measured gene product as a stand-in for the process of interest.
In the case of `O=C(CO[C@H]1C[C@@H](OC(F)(F)F)C1)NC12CC(NC(=O)[C@@H]3CC(O)c4cc(Cl)ccc4O3)(C1)C2` (stereo in doubt) [Compound 295, (2S,4S)-6-chloro-4-hydroxy-N-[3-(2-{[cis-3-(trifluoromethoxy)cyclobutyl]oxy}acetamido)bicyclo[1.1.1]pentan-1-yl]-3,4-dihydro-2H-1-benzopyran-2-carboxamide], the EC50 was in the range of 10 to 50 nM.

The same assay, now with this note: Homo sapiens, HEK-293T, 7 h, HEK293T cells carrying the ATF4 luciferase reporter, 1 μg/mL tunicamycin, One Glo luminescence.
As to `COc1cc2cn(C34CC(NC(=O)[C@H]5C[C@@H](O)c6cc(C(F)(F)F)ccc6O5)(C3)C4)nc2cn1` [Compound 499, (2R,4R)-4-hydroxy-N-[3-(5-methoxy-2H-pyrazolo[3,4-c]pyridin-2-yl)bicyclo[1.1.1]pentan-1-yl]-6-(trifluoromethyl)-3,4-dihydro-2H-1-benzopyran-2-carboxamide], the concentration giving a half-maximal response (EC50) was 10 to 50 nM.

As for `O=C(NC12CC(c3cnc(OCCCOC(F)(F)F)o3)(C1)C2)[C@H]1C[C@@H](O)c2cc(Cl)ccc2O1` [Compound 415, (2R,4R)-6-chloro-4-hydroxy-N-(3-{2-[3-(trifluoromethoxy)propoxy]-1,3-oxazol-5-yl}bicyclo[1.1.1]pentan-1-yl)-3,4-dihydro-2H-1-benzopyran-2-carboxamide], the EC50 is under 10 nM.

Consider `O=C(COc1ccc(C(F)(F)F)c(F)c1)N[C@H]1CC[C@H](n2cc(C(=O)N3CC[C@H](OC(F)(F)F)C3)cn2)CC1` [Compound 614, 2-[3-fluoro-4-(trifluoromethyl)phenoxy]-N-[(1S,4r)-4-{4-[(3S)-3-(trifluoromethoxy)pyrrolidine-1-carbonyl]-1H-pyrazol-1-yl}cyclohexyl]acetamide], for which the EC50 is under 10 nM.

As for `COc1ccc2nn(C34CC(NC(=O)[C@H]5C[C@@H](O)c6cc(Cl)ccc6O5)(C3)C4)cc2c1` [Compound 501, (2R,4R)-6-chloro-4-hydroxy-N-[3-(5-methoxy-2H-indazol-2-yl)bicyclo[1.1.1]pentan-1-yl]-3,4-dihydro-2H-1-benzopyran-2-carboxamide], the EC50 lay within 10 to 50 nM.

In the case of `O=C(NC12CCC(n3cc(OCCOC(F)(F)F)cn3)(C1)C2)[C@H]1C[C@@H](O)c2cc(Cl)ccc2O1` [Compound 594, (2R,4R)-6-chloro-4-hydroxy-N-(4-{4-[2-(trifluoromethoxy)ethoxy]-1H-pyrazol-1-yl}bicyclo[2.1.1]hexan-1-yl)-3,4-dihydro-2H-1-benzopyran-2-carboxamide], the half-maximal effective concentration (EC50) is 50 to 250 nM.

Consider `O=C(COc1ccc(Cl)c(Cl)c1)NC12CC(n3cc(C(=O)N4CC[C@H](OC(F)(F)F)C4)cn3)(C1)C2` [Compound 606, 2-(3,4-dichlorophenoxy)-N-(3-{4-[(3S)-3-(trifluoromethoxy)pyrrolidine-1-carbonyl]-1H-pyrazol-1-yl}bicyclo[1.1.1]pentan-1-yl)acetamide], for which the EC50 is under 10 nM.

Consider `C[C@H](COC(F)(F)F)N(C)c1cnn(C23CC(NC(=O)[C@H]4C[C@@H](O)c5cc(Cl)ccc5O4)(C2)C3)c1` [Compound 448, (2R,4R)-6-chloro-4-hydroxy-N-[3-(4-{methyl[(2R)-1-(trifluoromethoxy)propan-2-yl]amino}-1H-pyrazol-1-yl)bicyclo[1.1.1]pentan-1-yl]-3,4-dihydro-2H-1-benzopyran-2-carboxamide], for which the EC50 lay in the range of 500 to 2000 nM.

Turning to `O=C(COc1ccc(Cl)c(F)c1)N[C@H]1C[C@H]2O[C@@H]1CC2c1nnc([C@H]2C[C@@H](OC(F)(F)F)C2)o1` (mixture of isomers) [Compound 168, 2-(4-chloro-3-fluorophenoxy)-N-[rac-(1R,2S,4R,5S)-5-{5-[cis-3-(trifluoromethoxy)cyclobutyl]-1,3,4-oxadiazol-2-yl}-7-oxabicyclo[2.2.1]heptan-2-yl]acetamide], the EC50 was 250 to 500 nM.

Turning to `O=C(N[C@@H]1CC[C@@H](C(=O)N2CC(c3ccc(C(F)(F)F)cc3)C2)OC1)[C@H]1C[C@@H](O)c2cc(Cl)ccc2O1` [Compound 322, (2R,4R)-6-chloro-4-hydroxy-N-[(3R,6S)-6-{3-[4-(trifluoromethyl)phenyl]azetidine-1-carbonyl}oxan-3-yl]-3,4-dihydro-2H-1-benzopyran-2-carboxamide], the EC50 was under 10 nM.

Turning to `O=C(COc1ccc(Cl)c(F)c1)NC12CC(n3cc(CCCOC(F)(F)F)cn3)(C1)C2` [Compound 613, 2-(4-chloro-3-fluorophenoxy)-N-(3-{4-[3-(trifluoromethoxy)propyl]-1H-pyrazol-1-yl}bicyclo[1.1.1]pentan-1-yl)acetamide], the 50% effective concentration (EC50) is 10 to 50 nM.

On to `O=C(COc1ccc(Cl)c(F)c1)NC12CC(n3cc(C(=O)N4CC[C@H](OC(F)(F)F)C4)nn3)(C1)C2` [Compound 599, 2-(4-chloro-3-fluorophenoxy)-N-(3-{4-[(3S)-3-(trifluoromethoxy)pyrrolidine-1-carbonyl]-1H-1,2,3-triazol-1-yl}bicyclo[1.1.1]pentan-1-yl)acetamide], for which the EC50 is under 10 nM.

On to `O=C(NC12CC(c3cn(-c4ccc(OC(F)(F)F)cc4)nn3)(C1)C2)[C@H]1C[C@@H](O)c2cc(Cl)ccc2O1` [Compound 360, (2R,4R)-6-chloro-4-hydroxy-N-(3-{1-[4-(trifluoromethoxy)phenyl]-1H-1,2,3-triazol-4-yl}bicyclo[1.1.1]pentan-1-yl)-3,4-dihydro-2H-1-benzopyran-2-carboxamide], for which the EC50 was under 10 nM.

As to `O=C(NC12CC(n3cc(NCCCOC(F)(F)F)cn3)(C1)C2)[C@H]1C[C@@H](O)c2cc(Cl)ccc2O1` [Compound 444, (2R,4R)-6-chloro-4-hydroxy-N-[3-(4-{[3-(trifluoromethoxy)propyl]amino}-1H-pyrazol-1-yl)bicyclo[1.1.1]pentan-1-yl]-3,4-dihydro-2H-1-benzopyran-2-carboxamide], the EC50 is under 10 nM.

In the case of `COc1ccc2nn(C34CC(NC(=O)[C@H]5C[C@@H](O)c6cc(Cl)c(Cl)cc6O5)(C3)C4)cc2c1` [Compound 507, (2R,4R)-6,7-dichloro-4-hydroxy-N-[3-(5-methoxy-2H-indazol-2-yl)bicyclo[1.1.1]pentan-1-yl]-3,4-dihydro-2H-1-benzopyran-2-carboxamide], the EC50 is under 10 nM.

With `O=C(NC12CC(c3ccc(OCCOC(F)(F)F)nc3)(C1)C2)[C@H]1C[C@@H](O)c2cc(Cl)c(F)cc2O1` [Compound 446, (2R,4R)-6-chloro-7-fluoro-4-hydroxy-N-(3-{6-[2-(trifluoromethoxy)ethoxy]pyridin-3-yl}bicyclo[1.1.1]pentan-1-yl)-3,4-dihydro-2H-1-benzopyran-2-carboxamide], the EC50 was 10 to 50 nM.

Regarding `COc1ncc(-c2cnn(C34CC(NC(=O)[C@@H]5C[C@@H](O)c6cc(Cl)ccc6O5)(C3)C4)c2)cn1` [Compound 396, (2S,4R)-6-chloro-4-hydroxy-N-{3-[4-(2-methoxypyrimidin-5-yl)-1H-pyrazol-1-yl]bicyclo[1.1.1]pentan-1-yl}-3,4-dihydro-2H-1-benzopyran-2-carboxamide], the EC50 is 50 to 250 nM.

Turning to `CN(CCCOC(F)(F)F)c1cnn(C23CC(NC(=O)[C@H]4C[C@@H](O)c5cc(Cl)ccc5O4)(C2)C3)c1` [Compound 430, (2R,4R)-6-chloro-4-hydroxy-N-[3-(4-{methyl[3-(trifluoromethoxy)propyl]amino}-1H-pyrazol-1-yl)bicyclo[1.1.1]pentan-1-yl]-3,4-dihydro-2H-1-benzopyran-2-carboxamide], the EC50 is 10 to 50 nM.

As for `COc1ncc(-c2cnn(C34CC(NC(=O)[C@H]5C[C@@H](O)c6cc(C(F)(F)F)c(F)cc6O5)(C3)C4)c2)cn1` [Compound 639, (2R,4R)-7-fluoro-4-hydroxy-N-{3-[4-(2-methoxypyrimidin-5-yl)-1H-pyrazol-1-yl]bicyclo[1.1.1]pentan-1-yl}-6-(trifluoromethyl)-3,4-dihydro-2H-1-benzopyran-2-carboxamide], the EC50 was under 10 nM.

Take `O=C(NC12CC(n3cc(OCCOC(F)(F)F)cn3)(C1)C2)[C@@H]1C[C@@H](O)c2cc(Cl)ccc2O1` [Compound 631, (2S,4R)-6-chloro-4-hydroxy-N-(3-{4-[2-(trifluoromethoxy)ethoxy]-1H-pyrazol-1-yl}bicyclo[1.1.1]pentan-1-yl)-3,4-dihydro-2H-1-benzopyran-2-carboxamide]: the EC50 was in the range of 10 to 50 nM.

`C[C@@H](COc1cnn(C23CC(NC(=O)[C@H]4C[C@@H](O)c5cc(Cl)ccc5O4)(C2)C3)c1)OC(F)(F)F` [Compound 443, (2R,4R)-6-chloro-4-hydroxy-N-(3-{4-[(2S)-2-(trifluoromethoxy)propoxy]-1H-pyrazol-1-yl}bicyclo[1.1.1]pentan-1-yl)-3,4-dihydro-2H-1-benzopyran-2-carboxamide]: the EC50 was 10 to 50 nM.

As for `O=C(NC12CC(n3cc(OCCOC(F)(F)F)cn3)(C1)C2)[C@H]1C[C@@H](O)c2cc(Cl)ccc2O1` [Compound 412, (2R,4R)-6-chloro-4-hydroxy-N-(3-{4-[2-(trifluoromethoxy)ethoxy]-1H-pyrazol-1-yl}bicyclo[1.1.1]pentan-1-yl)-3,4-dihydro-2H-1-benzopyran-2-carboxamide], the EC50 was under 10 nM.

For `O=C(NC12CC(n3cc(-c4cnc(C5CC5)nc4)cn3)(C1)C2)[C@H]1C[C@@H](O)c2cc(Cl)ccc2O1` [Compound 365, (2R,4R)-6-chloro-N-{3-[4-(2-cyclopropylpyrimidin-5-yl)-1H-pyrazol-1-yl]bicyclo[1.1.1]pentan-1-yl}-4-hydroxy-3,4-dihydro-2H-1-benzopyran-2-carboxamide], the EC50 is under 10 nM.

For `O=C(CO[C@H]1C[C@@H](OC(F)(F)F)C1)NC12CC(NC(=O)[C@H]3C[C@H](O)c4cc(Cl)c(F)cc4O3)(C1)C2` [Compound 496, (2R,4S)-6-chloro-7-fluoro-4-hydroxy-N-[3-(2-{[(1s,3S)-3-(trifluoromethoxy)cyclobutyl]oxy}acetamido)bicyclo[1.1.1]pentan-1-yl]-3,4-dihydro-2H-1-benzopyran-2-carboxamide], the concentration giving a half-maximal response (EC50) is under 10 nM.
